Test results: patent US7378104B2, “Delivering substances to invertebrate organisms” (priority 2000, dated 2008)
Several values for one entry are separate records, joined by “and”; a condition that tells them apart may be missing. Equal entries are not always repeated. Where two headings read alike, the source gives them in different places. Marks after values point to notes of the source that are not given here.

What was measured:
[1] = system: Threehorn Wartyback; design: unit not given here; conditions: Threehorn Wartyback 30-50 mm; cited from earlier work
[2] = system: Zebra mussels; test: Experiment 1: toxicity of different masses of KCl to Zebra mussels over two days; type: in vivo, Dreissena polymorpha
Description: The toxicity of KCl alone to Zebra mussels is illustrated in Table 1 below, which gives the results of the following experiment:
1) A series of pots where filled with 20 ml of distilled water plus a specified mass of KCl crystals, ground to less than 53 microns. The masses of KCl were chosen to represent the total amount of KCl that would be ingested by a mussel filtering 1 litre of water per day.
2) One mussel was placed in each pot (it was assumed that the mussel would continuously re-filter the limited amount of solution in the pot and thus ingest the required amount of KCl.

[3] = system: Zebra Mussel; conditions: cited from earlier work
[4] = system: Rainbow Trout; conditions: Rainbow Trout 0.8-1.2 g; cited from earlier work
[5] = system: Zebra mussels; type: in vivo, Dreissena polymorpha; conditions: Mass of toxin 100 mg
Excerpt: The toxicity of an alternative toxin was also investigated and compared with that of KCl.

[6] = system: Channel Catfish; conditions: Channel Catfish 0.8-1.2 g; cited from earlier work
[7] = system: Zebra mussels; test: Experiment 8: Batch 7 particles versus KCl in beakers; type: in vivo, Dreissena polymorpha; conditions: for No. of live mussels in each pot: 1.15 g KCl
Description: A batch of particles (“Batch 7”) was manufactured by a fluidised bed coating method. 98 μm KCl particles were passed through a 350 μm sieve with 1% silica to help fluidisation. 800 g of solids were sprayed with palmitic acid (MP 61° C.) for 20 minutes at approximately 12 ml min^−1. 400 g of the resulting solids were then further coated with palmitic acid to finally produce particles containing between 20 and 25% wt of KCl.
40 1-litre beakers were filled with 500 ml of tap water and aerated overnight in a temperature controlled room at 25° C. Ten large Zebra mussels were placed into each beaker, attempting to keep a similar size range in all. Five different treatments were applied (such that each had eight replicates); • 1. 5 g of (Batch 7) was added. • 2. 0.5 g of (Batch 7) was added. • 3. 0.05 g of (Batch 7) was added. • 4. 5 g of Palmitic acid alone was added. • 5. 1.15 g of KCl (the same amount by mass as in 5 g of Batch 7) was added.
Each treatment substance was thoroughly stirred into each beaker and aeration continued for the duration of the experiment. At reasonably regular intervals, the number of dead mussels (as indicated by gape) were counted in each pot, before being removed and measured. This was continued until most were dead, or 72 hours had elapsed.

SMILES: [Cl-].[K+] [KCl, potassium chloride]
- 48-hour LC50 [1]: >2000^a
- state of mussel ([2]; 0.1 mg KCl, 17/03/99 16:30): Alive
- state of mussel ([2]; 0.1 mg KCl, 18/03/99 11:30): Alive
- state of mussel ([2]; 0.1 mg KCl, 18/03/99 13:30): Alive
- state of mussel ([2]; 0.1 mg KCl, 19/03/99 16:00): Alive
- state of mussel ([2]; 0.5 mg KCl, 17/03/99 16:30): Alive
- state of mussel ([2]; 0.5 mg KCl, 18/03/99 11:30): Alive
- state of mussel ([2]; 0.5 mg KCl, 18/03/99 13:30): Closed
- state of mussel ([2]; 0.5 mg KCl, 19/03/99 16:00): Alive
- state of mussel ([2]; 1 mg KCl, 17/03/99 16:30): Alive
- state of mussel ([2]; 1 mg KCl, 18/03/99 11:30): Alive
- state of mussel ([2]; 1 mg KCl, 18/03/99 13:30): Alive
- state of mussel ([2]; 1 mg KCl, 19/03/99 16:00): Alive
- state of mussel ([2]; 5 mg KCl, 17/03/99 16:30): Alive
- state of mussel ([2]; 5 mg KCl, 18/03/99 11:30): Alive
- state of mussel ([2]; 5 mg KCl, 18/03/99 13:30): Alive
- state of mussel ([2]; 5 mg KCl, 19/03/99 16:00): Alive
- state of mussel ([2]; 10 mg KCl, 17/03/99 16:30): Alive
- state of mussel ([2]; 10 mg KCl, 18/03/99 11:30): Alive
- state of mussel ([2]; 10 mg KCl, 18/03/99 13:30): Closed
- state of mussel ([2]; 10 mg KCl, 19/03/99 16:00): Dead
- state of mussel ([2]; 25 mg KCl, 17/03/99 16:30): Alive
- state of mussel ([2]; 25 mg KCl, 18/03/99 11:30): Dead
- state of mussel ([2]; 25 mg KCl, 18/03/99 13:30): Dead
- state of mussel ([2]; 25 mg KCl, 19/03/99 16:00): Dead
- state of mussel ([2]; 50 mg KCl, 17/03/99 16:30): Alive
- state of mussel ([2]; 50 mg KCl, 18/03/99 11:30): Dead
- state of mussel ([2]; 50 mg KCl, 18/03/99 13:30): Dead
- state of mussel ([2]; 50 mg KCl, 19/03/99 16:00): Dead
- effectiveness of KCl alone over the test period ([2]; lower concentrations): not effective
- 48-hour LC50 ([3]; Zebra Mussel 5-8 mm): 147 µg/mL
- 48-hour LC50 ([3]; Zebra Mussel 20-25 mm): 150 µg/mL
- 48-hour LC50 [4]: 1610 µg/mL
- Time for mortality of all mussels [5]: 8 h
- mortality ([5]; at 8 hours): 60%
- 48-hour LC50 [6]: 720 µg/mL
- No. of live mussels in each pot ([7]; 0.5 hrs): 10
- No. of live mussels in each pot ([7]; 1 hrs): 10 and 9
- No. of live mussels in each pot ([7]; 1.5 hrs): 10 and 9
- No. of live mussels in each pot ([7]; 2 hrs): 10 and 9 and 7
- No. of live mussels in each pot ([7]; 3 hrs): 9 and 8 and 7 and 10
- No. of live mussels in each pot ([7]; 3.5 hrs): 9 and 8 and 7 and 6
- No. of live mussels in each pot ([7]; 4.5 hrs): 8 and 7 and 5 and 6 and 9
- No. of live mussels in each pot ([7]; 5 hrs): 7 and 6 and 4 and 5 and 8
- No. of live mussels in each pot ([7]; 6 hrs): 6 and 4 and 5 and 7
- No. of live mussels in each pot ([7]; 7.5 hrs): 6 and 4 and 3 and 5
- mortality ([7]; 1.15 g of KCl, especially over the first 8 hours): rapid mortality
